This note sets out measurements from patent publication US4150029A, “3-Aryl 2-oxazolidinones, their process of preparation and their therapeutical application” (Delalande S.A., priority 1976, dated 1979).

Read-outs that look alike come from different tables or passages of the source.

Series [1] can be described thus: Acute toxicity in mice. The settings on record: mouse, in vivo, po; for LD50: acute toxicity, read-out: 50 DL.
In series [2] the test system is ptosis observed one hour after an intravenous injection of reserpine. Kind of series: Test B: antagonism of reserpine-induced ptosis in the mouse. The settings on record: po, 1 h, p.o., reserpine 2 mg/kg i.v., read-out: Test B 50 DE. Format: in vivo. The method, then:
Antagonism in relation to ptosis observed one hour after an intravenous injection (2 mg/kg) of reserpine was given to a mouse, according to the mode of operation described by GOURET C. and THOMAS J. in J. Pharmacol. (PARIS), (1973), 4, 401.

The test system of series [3] is generalised trembling caused by an intraperitoneal injection of dl-5-hydroxytryptophane. Kind of series: Test A: potentiation of generalised trembling caused by dl-5-hydroxytryptophane in the mouse. Format: in vivo. The settings on record: po, read-out: Test A 50 DE. The procedure: Potentiation in a mouse of generalised trembling caused by an intraperitoneal injection (200 mg/kg) of dl-5-hydroxytryptophane, according to the mode of operation described by GOURET C. and RAYNAUD G. in the J. Pharmacol. (PARIS), (1974), 5, 231.

Series [4] has as its system pontogeniculo-occipital points (P.G.O.) caused by reserpine. The experiment in a line: Test C: diminution in density of reserpine-induced pontogeniculo-occipital (P.G.O.) points in the cat. The format is in vivo. The settings on record: Felis catus, po, reserpine 0.5 mg/kg, read-out: Test C 50 DE. The method, then:
Diminution in the density of pontogeniculo-occipital points (P.G.O.) caused by injecting a cat with 0.5 mg/kg of reserpine, according to the mode of operation described by COSTON A. and GOURET C. in J. Pharmacol. (PARIS), (1976), 7, 409.

[5] abbreviates: mouse, p.o., dl-5-hydroxytryptophane 200 mg/kg i.p.

By mortality is commonly meant the percentage killed. Low readings indicate a weak lethal effect, high ones a strong lethal effect. Compound `CNC(=O)OCC1CN(c2cccc(C(F)(F)F)c2)C(=O)O1` (centres unmarked) [compound 740704] gave a mortality in series [1] (dose administered 2000 mg/kg/p.o.) of 0%. Also, the ED50 amounted to 12 mg/kg in series [2], 42 mg/kg in series [3] (Mus musculus) and 52 mg/kg in series [4].
For the compound `CSc1ccc(N2CC(CO)OC2=O)cc1` (centres unmarked) [compound 760082], in series [1], the LD50 is above 2000 mg/kg. Also, the ED50 in series [2] was determined as 18 mg/kg; in series [3] (setting [5]), 22 mg/kg; in series [4], 8.4 mg/kg.
Take `CCCCOc1ccc(N2CC(CO)OC2=O)cc1` (centres unmarked) [compound 760304]: the LD50 in series [1] was above 2000 mg/kg. Besides, the ED50 in series [2] is 5 mg/kg; in series [3] (setting [5]), 5 mg/kg; in series [4], 6.1 mg/kg.
For the compound `CC(C)NC(=O)OCC1CN(c2cccc(C(F)(F)F)c2)C(=O)O1` (centres unmarked) [compound 740711], the mortality in series [1] (dose administered 1000 mg/kg/p.o.) is 0%. Further, the figures for the ED50 in series [2] and in series [3] (setting [5]) were 26 mg/kg and 19 mg/kg, respectively.
As for `O=C1OC(CO)CN1c1ccc([N+](=O)[O-])cc1` (centres unmarked) [compound 740564], the LD50 in series [1] was above 1000 mg/kg. Also, the figures for the ED50 in series [2], in series [3] (setting [5]) and in series [4] were 42 mg/kg, 38 mg/kg and 16 mg/kg, respectively.
Taken in the same sequence, the figures for `Cc1cccc(N2CC(CO)OC2=O)c1` (centres unmarked) [TOLOXATONE, reference compound] were 1850 mg/kg, 50 mg/kg, 60 mg/kg and 28 mg/kg.
Regarding `O=C1OC(CO)CN1c1ccc(OCc2ccccc2)cc1` (centres unmarked) [compound 760167, 5-hydroxymethyl 3-p-benzyloxyphenyl 2-oxazolidinone], the LD50 in series [1] was above 2000 mg/kg. For the same compound, the ED50 in series [2] turned out to be 3.3 mg/kg; in series [3] (setting [5]) it was 9.5 mg/kg; in series [4] it was 15.2 mg/kg.
On to `O=C1OC(CO)CN1c1ccc(OCc2cccc(F)c2)cc1` (centres unmarked) [compound 760453], for which the values for the ED50 in series [2], in series [3] (setting [5]) and in series [4] were 7 mg/kg, 5.5 mg/kg and 11.6 mg/kg, respectively.
`CCCOc1ccc(N2CC(CO)OC2=O)cc1` (centres unmarked) [compound 760303]: the ED50 was 14 mg/kg in series [2], 9 mg/kg in series [3] (setting [5]) and 6.9 mg/kg in series [4].
Consider `CC(C)NC(=O)OCC1CN(c2ccc(OCc3ccccc3)cc2)C(=O)O1` (centres unmarked) [compound 760723], for which the results for the ED50 in series [2], in series [3] (setting [5]) and in series [4] were 17.5 mg/kg, above 50 mg/kg and above 50 mg/kg, respectively.
On to `O=C1OC(CO)CN1c1ccc(OCc2ccc(F)cc2)cc1` (centres unmarked) [compound 760432], for which the ED50 in series [2] worked out at 2 mg/kg; in series [3] (setting [5]), 3.8 mg/kg; in series [4], 24 mg/kg.
`O=C1OC(CO)CN1c1ccc(SC2CCCCC2)cc1` (centres unmarked) [compound 760621]: the ED50 was determined as 42 mg/kg in series [2], 100 mg/kg in series [3] (setting [5]) and 40 mg/kg in series [4].
On to `CCOc1ccc(N2CC(CO)OC2=O)cc1` (centres unmarked) [compound 760037], for which, in series [1], the LD50 is above 2000 mg/kg. Further, the ED50 in series [2] was 40 mg/kg; in series [3] (setting [5]) it was 16 mg/kg; in series [4], 5.4 mg/kg.
On to `CCOc1ccc(N2CC(COC(=O)NC)OC2=O)cc1` (centres unmarked) [compound 760104], for which the ED50 in series [2] is 44 mg/kg; in series [3] (Mus musculus), 48 mg/kg; in series [4], above 50 mg/kg.
Take `N#Cc1ccc(N2CC(CO)OC2=O)cc1` (centres unmarked) [compound 760271]: the LD50 in series [1] was 1050 mg/kg. The values for the ED50 in series [2], in series [3] (setting [5]) and in series [4] were 11 mg/kg, 20 mg/kg and 11 mg/kg, respectively.
